target: PRKCQ (PKC theta) (Homo sapiens, UniProt Q04759); test: High-throughput kinase assay; type: biochemical; conditions: 50 nM; read-out: Percent inhibition of kinase activity in vitro, PRKCQ (PKC theta)
Method: (§1) Screening of Compounds 1-4 against several kinases identified two prominent targets of these compounds as the Aurora A kinase and calcium dependent protein kinase C isoforms α, βI, βII and […] (Tables 1 to 3). IC50s for these two targets were obtained by plotting inhibition levels at 500 nM, 100 nM, 50 nM and 10 nM (FIG. 3). These kinases are directly involved in pathways controlling cell differentiation programs, metastasis signaling, as well as EMT and CSC programming and their overexpression was reported to predict decreased metastasis-free survival.

Row | SMILES | inhibition at 0.05 µM
1 | O=c1c2ccccc2[se]n1-c1nc(N[C@H]2CC[Se]C2)c2nc[nH]c2n1 [Compound 4] | 98%

target: AKT1 (PKB alpha) (Homo sapiens, UniProt P31749); test: High-throughput kinase assay; type: biochemical; conditions: 100 nM; read-out: Percent inhibition of kinase activity in vitro, AKT1 (PKB alpha)
Sequence (P31749 whole entry): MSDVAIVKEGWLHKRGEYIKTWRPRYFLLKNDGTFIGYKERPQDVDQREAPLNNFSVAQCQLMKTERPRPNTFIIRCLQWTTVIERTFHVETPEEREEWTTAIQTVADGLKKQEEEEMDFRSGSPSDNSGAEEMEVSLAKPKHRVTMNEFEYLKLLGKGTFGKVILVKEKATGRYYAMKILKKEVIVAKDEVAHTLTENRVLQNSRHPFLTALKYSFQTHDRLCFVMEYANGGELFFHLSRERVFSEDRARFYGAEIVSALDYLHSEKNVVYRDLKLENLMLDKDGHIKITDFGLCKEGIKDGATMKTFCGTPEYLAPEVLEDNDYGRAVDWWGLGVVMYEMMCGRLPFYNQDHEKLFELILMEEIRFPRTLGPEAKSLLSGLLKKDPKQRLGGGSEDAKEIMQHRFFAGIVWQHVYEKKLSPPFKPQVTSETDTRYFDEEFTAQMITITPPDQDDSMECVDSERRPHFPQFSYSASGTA
Method: as §1

Row | SMILES | inhibition at 0.1 µM
2 | O=c1c2ccccc2[se]n1-c1nc(N[C@H]2CC[Se]C2)c2nc[nH]c2n1 [Compound 4] | 4%

target: SRC (Homo sapiens, UniProt P12931); test: High-throughput kinase assay; type: biochemical; conditions: 100 nM; read-out: Percent inhibition of kinase activity in vitro, SRC
Sequence (P12931 whole entry): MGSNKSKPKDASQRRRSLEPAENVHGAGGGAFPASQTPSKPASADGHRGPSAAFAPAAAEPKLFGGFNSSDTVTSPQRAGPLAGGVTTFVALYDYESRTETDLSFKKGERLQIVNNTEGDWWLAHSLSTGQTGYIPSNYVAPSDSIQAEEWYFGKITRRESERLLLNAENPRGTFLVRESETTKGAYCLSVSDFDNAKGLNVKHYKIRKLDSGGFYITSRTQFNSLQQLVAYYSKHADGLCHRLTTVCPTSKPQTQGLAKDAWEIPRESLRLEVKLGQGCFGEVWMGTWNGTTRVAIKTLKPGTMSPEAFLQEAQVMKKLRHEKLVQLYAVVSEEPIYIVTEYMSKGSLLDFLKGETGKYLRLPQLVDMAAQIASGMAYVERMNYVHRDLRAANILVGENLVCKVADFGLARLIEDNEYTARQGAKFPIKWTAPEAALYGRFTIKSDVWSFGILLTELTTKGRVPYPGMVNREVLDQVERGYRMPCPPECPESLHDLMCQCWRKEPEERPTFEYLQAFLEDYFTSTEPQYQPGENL
Method: as §1

Row | SMILES | inhibition at 0.1 µM
3 | O=c1c2ccccc2[se]n1-c1nc(N[C@H]2CC[Se]C2)c2nc[nH]c2n1 [Compound 4] | 4%

target: PRKCA (PKC alpha) (Homo sapiens, UniProt P17252); test: High-throughput kinase assay; type: biochemical; conditions: 10 nM; read-out: Percent inhibition of kinase activity in vitro, PRKCA (PKC alpha)
Method: as §1

Row | SMILES | inhibition at 0.01 µM
4 | O=c1c2ccccc2[se]n1-c1nc(N[C@H]2CC[Se]C2)c2nc[nH]c2n1 [Compound 4] | 22%

same assay, conditions: 50 nM; read-out: Percent inhibition of kinase activity in vitro, PRKCA (PKC alpha)

Row | SMILES | inhibition at 0.05 µM
5 | O=c1c2ccccc2[se]n1-c1nc(N[C@H]2CC[Se]C2)c2nc[nH]c2n1 [Compound 4] | 101%

same assay, conditions: 100 nM; read-out: Percent inhibition of kinase activity in vitro, PRKCA (PKC alpha)

Row | SMILES | inhibition at 0.1 µM
6 | O=c1c2ccccc2[se]n1-c1nc(N[C@H]2CC[Se]C2)c2nc[nH]c2n1 [Compound 4] | 98%

same assay, conditions: from inhibition levels at 500, 100, 50 and 10 nM

Row | SMILES | IC50
7 | O=c1c2ccccc2[se]n1-c1nc(N[C@H]2CC[Se]C2)c2nc[nH]c2n1 [Compound 4] | 10.9 nM

target: YES1 (Homo sapiens, UniProt P07947); test: High-throughput kinase assay; type: biochemical; conditions: 100 nM; read-out: Percent inhibition of kinase activity in vitro, YES1
Method: as §1

Row | SMILES | inhibition at 0.1 µM
8 | O=c1c2ccccc2[se]n1-c1nc(N[C@H]2CC[Se]C2)c2nc[nH]c2n1 [Compound 4] | 24%

target: RET (Homo sapiens, UniProt P07949); test: High-throughput kinase assay; type: biochemical; conditions: 100 nM; read-out: Percent inhibition of kinase activity in vitro, RET
Method: as §1

Row | SMILES | inhibition at 0.1 µM
9 | O=c1c2ccccc2[se]n1-c1nc(N[C@H]2CC[Se]C2)c2nc[nH]c2n1 [Compound 4] | 10%

target: MET (cMet) (Homo sapiens, UniProt P08581); test: High-throughput kinase assay; type: biochemical; conditions: 100 nM; read-out: Percent inhibition of kinase activity in vitro, MET (cMet)
Method: as §1

Row | SMILES | inhibition at 0.1 µM
10 | O=c1c2ccccc2[se]n1-c1nc(N[C@H]2CC[Se]C2)c2nc[nH]c2n1 [Compound 4] | 4%

target: PIK3CA/PIK3R1 (Homo sapiens, UniProt P42336); test: High-throughput kinase assay; type: biochemical; conditions: 100 nM; read-out: Percent inhibition of kinase activity in vitro, PIK3CA/PIK3R1
Sequence (P42336 whole entry): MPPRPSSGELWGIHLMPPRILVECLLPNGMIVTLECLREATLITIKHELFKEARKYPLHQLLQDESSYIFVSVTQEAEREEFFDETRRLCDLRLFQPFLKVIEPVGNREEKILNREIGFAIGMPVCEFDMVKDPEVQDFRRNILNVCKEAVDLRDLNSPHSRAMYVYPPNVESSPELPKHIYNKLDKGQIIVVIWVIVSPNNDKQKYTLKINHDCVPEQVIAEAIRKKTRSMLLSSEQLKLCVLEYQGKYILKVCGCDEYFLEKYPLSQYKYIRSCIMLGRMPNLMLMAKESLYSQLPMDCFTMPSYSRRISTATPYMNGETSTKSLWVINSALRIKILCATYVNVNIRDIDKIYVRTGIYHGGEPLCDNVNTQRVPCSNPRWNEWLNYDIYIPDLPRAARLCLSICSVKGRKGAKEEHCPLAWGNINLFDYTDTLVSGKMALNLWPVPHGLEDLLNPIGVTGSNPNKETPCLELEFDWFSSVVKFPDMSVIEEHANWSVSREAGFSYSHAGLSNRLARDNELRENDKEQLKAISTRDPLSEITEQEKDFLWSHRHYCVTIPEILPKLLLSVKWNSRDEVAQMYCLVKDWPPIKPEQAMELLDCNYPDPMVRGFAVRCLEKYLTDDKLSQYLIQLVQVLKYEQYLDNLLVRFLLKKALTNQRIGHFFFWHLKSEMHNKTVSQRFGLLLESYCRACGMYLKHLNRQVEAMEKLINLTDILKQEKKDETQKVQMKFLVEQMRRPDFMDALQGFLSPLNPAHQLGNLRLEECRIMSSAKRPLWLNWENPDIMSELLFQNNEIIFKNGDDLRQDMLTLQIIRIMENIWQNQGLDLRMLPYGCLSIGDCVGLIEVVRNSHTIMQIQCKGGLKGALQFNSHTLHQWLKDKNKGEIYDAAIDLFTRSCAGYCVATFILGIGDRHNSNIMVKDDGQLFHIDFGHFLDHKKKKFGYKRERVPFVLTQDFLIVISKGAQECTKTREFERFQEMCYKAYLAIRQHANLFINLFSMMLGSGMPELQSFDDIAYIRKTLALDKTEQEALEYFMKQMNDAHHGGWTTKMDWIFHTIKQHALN
Sequence (P27986 whole entry partner): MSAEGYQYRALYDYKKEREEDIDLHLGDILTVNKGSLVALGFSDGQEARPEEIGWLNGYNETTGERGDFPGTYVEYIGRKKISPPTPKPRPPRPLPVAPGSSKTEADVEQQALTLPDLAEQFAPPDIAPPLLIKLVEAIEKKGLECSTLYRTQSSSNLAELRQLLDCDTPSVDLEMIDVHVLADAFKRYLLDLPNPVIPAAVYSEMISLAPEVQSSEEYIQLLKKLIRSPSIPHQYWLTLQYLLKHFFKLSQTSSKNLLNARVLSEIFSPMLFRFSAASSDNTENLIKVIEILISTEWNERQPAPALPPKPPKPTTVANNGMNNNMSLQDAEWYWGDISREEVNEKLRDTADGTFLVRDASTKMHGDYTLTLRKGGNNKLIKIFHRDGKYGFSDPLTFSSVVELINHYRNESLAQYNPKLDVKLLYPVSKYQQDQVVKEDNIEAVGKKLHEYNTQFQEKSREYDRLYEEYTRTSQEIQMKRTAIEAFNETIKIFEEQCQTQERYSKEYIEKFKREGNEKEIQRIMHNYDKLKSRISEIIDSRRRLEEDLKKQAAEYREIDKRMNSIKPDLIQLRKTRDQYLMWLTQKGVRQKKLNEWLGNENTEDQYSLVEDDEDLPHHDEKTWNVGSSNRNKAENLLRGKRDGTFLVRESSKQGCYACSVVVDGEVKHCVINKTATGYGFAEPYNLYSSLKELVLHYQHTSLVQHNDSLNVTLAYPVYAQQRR
Method: as §1

Row | SMILES | inhibition at 0.1 µM
11 | O=c1c2ccccc2[se]n1-c1nc(N[C@H]2CC[Se]C2)c2nc[nH]c2n1 [Compound 4] | 0%

target: IGF1R (Homo sapiens, UniProt P08069); test: High-throughput kinase assay; type: biochemical; conditions: 100 nM; read-out: Percent inhibition of kinase activity in vitro, IGF1R
Method: as §1

Row | SMILES | inhibition at 0.1 µM
12 | O=c1c2ccccc2[se]n1-c1nc(N[C@H]2CC[Se]C2)c2nc[nH]c2n1 [Compound 4] | 4%

target: FGFR1 (Homo sapiens, UniProt P11362); test: High-throughput kinase assay; type: biochemical; conditions: 100 nM; read-out: Percent inhibition of kinase activity in vitro, FGFR1
Method: as §1

Row | SMILES | inhibition at 0.1 µM
13 | O=c1c2ccccc2[se]n1-c1nc(N[C@H]2CC[Se]C2)c2nc[nH]c2n1 [Compound 4] | 0%

target: PTK2 (FAK) (Homo sapiens, UniProt Q05397); test: High-throughput kinase assay; type: biochemical; conditions: 100 nM; read-out: Percent inhibition of kinase activity in vitro, PTK2 (FAK)
Method: as §1

Row | SMILES | inhibition at 0.1 µM
14 | O=c1c2ccccc2[se]n1-c1nc(N[C@H]2CC[Se]C2)c2nc[nH]c2n1 [Compound 4] | 1%

target: T1, AURKA (Aurora A) (Homo sapiens, UniProt O14965); test: High-throughput kinase assay; type: biochemical; conditions: 10 nM; read-out: Percent inhibition of kinase activity in vitro, AURKA (Aurora A)
T1 sequence (O14965 1-403): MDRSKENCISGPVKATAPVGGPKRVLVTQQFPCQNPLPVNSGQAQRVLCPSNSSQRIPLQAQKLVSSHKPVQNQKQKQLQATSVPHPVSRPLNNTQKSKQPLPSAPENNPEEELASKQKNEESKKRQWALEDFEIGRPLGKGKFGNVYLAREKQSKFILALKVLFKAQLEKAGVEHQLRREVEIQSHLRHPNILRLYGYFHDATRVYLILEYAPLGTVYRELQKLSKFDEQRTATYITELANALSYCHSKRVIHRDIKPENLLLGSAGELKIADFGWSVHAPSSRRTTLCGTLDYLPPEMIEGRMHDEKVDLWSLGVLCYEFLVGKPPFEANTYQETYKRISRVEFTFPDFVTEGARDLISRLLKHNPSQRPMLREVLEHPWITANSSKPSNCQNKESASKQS
Method: as §1

Row | SMILES | inhibition at 0.01 µM
15 | O=c1c2ccccc2[se]n1-c1nc(N[C@H]2CC[Se]C2)c2nc[nH]c2n1 [Compound 4] | 55%

same assay, conditions: 50 nM; read-out: Percent inhibition of kinase activity in vitro, AURKA (Aurora A)

Row | SMILES | inhibition at 0.05 µM
16 | O=c1c2ccccc2[se]n1-c1nc(N[C@H]2CC[Se]C2)c2nc[nH]c2n1 [Compound 4] | 87%

same assay, conditions: 100 nM; read-out: Percent inhibition of kinase activity in vitro, AURKA (Aurora A)

Row | SMILES | inhibition at 0.1 µM
17 | O=c1c2ccccc2[se]n1-c1nc(N[C@H]2CC[Se]C2)c2nc[nH]c2n1 [Compound 4] | 95%

same assay, conditions: from inhibition levels at 500, 100, 50 and 10 nM

Row | SMILES | IC50
18 | O=c1c2ccccc2[se]n1-c1nc(N[C@H]2CC[Se]C2)c2nc[nH]c2n1 [Compound 4] | 3.8 nM

target: FRAP1 (mTOR) (Homo sapiens, UniProt P42345); test: High-throughput kinase assay; type: biochemical; conditions: 100 nM; read-out: Percent inhibition of kinase activity in vitro, FRAP1 (mTOR)
Method: as §1

Row | SMILES | inhibition at 0.1 µM
19 | O=c1c2ccccc2[se]n1-c1nc(N[C@H]2CC[Se]C2)c2nc[nH]c2n1 [Compound 4] | 8%

target: FLT1 (VEGFR1) (Homo sapiens, UniProt P17948); test: High-throughput kinase assay; type: biochemical; conditions: 100 nM; read-out: Percent inhibition of kinase activity in vitro, FLT1 (VEGFR1)
Method: as §1

Row | SMILES | inhibition at 0.1 µM
20 | O=c1c2ccccc2[se]n1-c1nc(N[C@H]2CC[Se]C2)c2nc[nH]c2n1 [Compound 4] | 4%

target: LCK (Homo sapiens, UniProt P06239); test: High-throughput kinase assay; type: biochemical; conditions: 100 nM; read-out: Percent inhibition of kinase activity in vitro, LCK
Method: as §1

Row | SMILES | inhibition at 0.1 µM
21 | O=c1c2ccccc2[se]n1-c1nc(N[C@H]2CC[Se]C2)c2nc[nH]c2n1 [Compound 4] | 8%

target: EEF2K (Homo sapiens, UniProt O00418); test: High-throughput kinase assay; type: biochemical; conditions: 100 nM; read-out: Percent inhibition of kinase activity in vitro, EEF2K
Method: as §1

Row | SMILES | inhibition at 0.1 µM
22 | O=c1c2ccccc2[se]n1-c1nc(N[C@H]2CC[Se]C2)c2nc[nH]c2n1 [Compound 4] | 10%

target: PRKCD (PKC delta) (Homo sapiens, UniProt Q05655); test: High-throughput kinase assay; type: biochemical; conditions: 50 nM; read-out: Percent inhibition of kinase activity in vitro, PRKCD (PKC delta)
Method: as §1

Row | SMILES | inhibition at 0.05 µM
23 | O=c1c2ccccc2[se]n1-c1nc(N[C@H]2CC[Se]C2)c2nc[nH]c2n1 [Compound 4] | 0%

target: JAK2 (Homo sapiens, UniProt O60674); test: High-throughput kinase assay; type: biochemical; conditions: 100 nM; read-out: Percent inhibition of kinase activity in vitro, JAK2
Sequence (O60674 whole entry): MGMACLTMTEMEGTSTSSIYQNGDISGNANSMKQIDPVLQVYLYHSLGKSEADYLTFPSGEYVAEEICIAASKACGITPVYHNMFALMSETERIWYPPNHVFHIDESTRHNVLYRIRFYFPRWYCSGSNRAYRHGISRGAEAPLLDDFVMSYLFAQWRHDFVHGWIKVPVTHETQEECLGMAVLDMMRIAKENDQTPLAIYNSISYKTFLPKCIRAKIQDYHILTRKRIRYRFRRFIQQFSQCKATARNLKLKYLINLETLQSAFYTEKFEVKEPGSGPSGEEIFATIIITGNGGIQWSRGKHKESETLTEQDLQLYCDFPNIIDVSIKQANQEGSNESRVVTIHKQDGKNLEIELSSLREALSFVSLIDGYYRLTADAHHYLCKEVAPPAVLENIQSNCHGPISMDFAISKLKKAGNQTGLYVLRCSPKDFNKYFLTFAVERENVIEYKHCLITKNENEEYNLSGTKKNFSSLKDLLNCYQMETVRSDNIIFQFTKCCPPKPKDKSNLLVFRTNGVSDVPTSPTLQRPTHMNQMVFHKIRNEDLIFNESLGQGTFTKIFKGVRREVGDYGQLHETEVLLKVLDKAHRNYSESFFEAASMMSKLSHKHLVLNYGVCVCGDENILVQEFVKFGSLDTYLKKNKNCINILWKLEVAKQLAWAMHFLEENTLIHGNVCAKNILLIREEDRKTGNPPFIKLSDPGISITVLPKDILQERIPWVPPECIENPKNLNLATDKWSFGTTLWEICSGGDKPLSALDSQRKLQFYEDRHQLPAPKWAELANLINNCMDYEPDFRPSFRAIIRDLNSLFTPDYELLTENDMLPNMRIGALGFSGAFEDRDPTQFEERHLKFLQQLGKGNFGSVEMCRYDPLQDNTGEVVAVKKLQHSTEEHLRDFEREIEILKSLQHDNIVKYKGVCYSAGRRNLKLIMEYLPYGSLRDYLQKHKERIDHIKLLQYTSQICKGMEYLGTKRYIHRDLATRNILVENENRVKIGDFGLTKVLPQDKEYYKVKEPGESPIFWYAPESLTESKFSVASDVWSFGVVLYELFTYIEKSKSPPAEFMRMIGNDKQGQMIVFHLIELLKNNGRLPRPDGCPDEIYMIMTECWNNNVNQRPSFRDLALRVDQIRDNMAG
Method: as §1

Row | SMILES | inhibition at 0.1 µM
24 | O=c1c2ccccc2[se]n1-c1nc(N[C@H]2CC[Se]C2)c2nc[nH]c2n1 [Compound 4] | 18%

Reference: US10711002B2, “Purine compounds and method for the treatment of cancer” (THE ROYAL INSTITUTION FOR THE ADVANCEMENT OF …, priority 2016, dated 2020)
